This is an account of results in paper PMC11513893, “Discovery of Oral Degraders of the ROS1 Fusion Protein with Potent Activity against Secondary Resistance Mutations” (Journal of Medicinal Chemistry, 2024).

In test [1] the test system is Ba/F3 CD74-ROS1 non mutant. As to the kind of experiment: Antiproliferation assay (Alamar Blue, 72 h). Type of test: cell-based, mouse. The conditions noted are these: Mus musculus, BaF3, 72 h, Ba/F3 cells, cell growth inhibition.
Test [2] concerns Ba/F3 cell lines engineered to express the oncogenic ROS1 rearrangement. To be noted: cited from earlier work.
The subject of another test is Ba/F3 ROS1 L2086F. Briefly: Antiproliferation assay. Type of test: cell-based. The conditions noted are these: Mus musculus, BaF3; Ba/F3 cells, cell growth inhibition. The source says: To assess targeted degradation of ROS1 fusion proteins, we first established a mouse pro-B cell line Ba/F3 as a model expressing the CD74-ROS1 oncogene or CD74-ROS1 with clinically observed secondary/tertiary mutations. The Ba/F3 cell line is dependent on interleukin-3 for survival and proliferation. Upon transduction of oncogenic ROS1, Ba/F3 cells become independent of interleukin-3 but dependent on the transduced driver gene. The Ba/F3 models have been effectively employed in the discovery and preclinical development of next generation ROS1 inhibitors.[11],[14],[15] We have tested ROS1 inhibitors against these Ba/F3 cells to validate their sensitivity and resistance to ROS1 inhibition.
(§1) Ba/F3 immortalized murine bone marrow–derived pro-B cells were obtained from Creative Biogene (Shirley, NY) and cultured in RPMI supplemented with 10% FBS and IL3 (0.5 ng/mL). Ba/F3 cells expressing ROS1 variants were maintained in RPMI supplemented with 10% FBS and puromycin (0.7 mg/mL). Crizotinib, ceritinib, brigatinib, repotrectinib, and lorlatinib were purchased from MedChem Express. Each compound was dissolved in DMSO and serially diluted in RPMI for cell culture experiments.
(§2) To assess the 72 h effect of drug treatment on cell proliferation, 2000 to 3000 cells were plated in replicates of three in 96-well plates. The plates were placed in an incubator at 37 °C, 5% CO2 for 72 h. Following drug treatments, the cells were incubated with the Alamar Blue Assay reagent (BioRad), 5 μL each well for 4 h at 37 °C and 5% CO2. Luminescence was measured on a multiplate reader and analyzed. […] IC50 values were determined using a nonlinear regression model with a sigmoidal dose response in GraphPad. The data were collected based on triplicate experiments, and presented as mean ± SD.
(§3) cDNA encoding CD74-ROS1 or mutant CD74–ROS1 was cloned into retroviral expression vectors (pLenti), and viruses were generated in HEK293T cells by transfecting with packaging plasmids. The resulting virus was used to infect Ba/F3 cells. After retroviral infection, Ba/F3 cells were selected by incubation with puromycin (0.7 mg/mL) for 2 weeks. For Ba/F3 cells infected by the CD74–ROS1 variants, IL3 was withdrawn from the culture medium at least 2 weeks before the experiments.

Another test concerns Ba/F3 ROS1-G2032R. Briefly: Antiproliferation assay. Format: cell-based, mouse. To be noted: Mus musculus, BaF3; Ba/F3 cells, cell growth inhibition, 72 h.
A further test has as its system Ba/F3 ROS1 G2032R-F2075V. Briefly: Antiproliferation assay. Type of test: cell-based. To be noted: Mus musculus, BaF3; Ba/F3 cells, cell growth inhibition.
Source text: (§4) To assess targeted degradation of ROS1 fusion proteins, we first established a mouse pro-B cell line Ba/F3 as a model expressing the CD74-ROS1 oncogene or CD74-ROS1 with clinically observed secondary/tertiary mutations. The Ba/F3 cell line is dependent on interleukin-3 for survival and proliferation. Upon transduction of oncogenic ROS1, Ba/F3 cells become independent of interleukin-3 but dependent on the transduced driver gene.
(§5) Ba/F3 immortalized murine bone marrow–derived pro-B cells were obtained from Creative Biogene (Shirley, NY) and cultured in RPMI supplemented with 10% FBS and IL3 (0.5 ng/mL). Ba/F3 cells expressing ROS1 variants were maintained in RPMI supplemented with 10% FBS and puromycin (0.7 mg/mL). […] Each compound was dissolved in DMSO and serially diluted in RPMI for cell culture experiments.
as §2
(§6) The resulting virus was used to infect Ba/F3 cells. After retroviral infection, Ba/F3 cells were selected by incubation with puromycin (0.7 mg/mL) for 2 weeks. For Ba/F3 cells infected by the CD74–ROS1 variants, IL3 was withdrawn from the culture medium at least 2 weeks before the experiments.

A further test has as its system Ba/F3 ROS1 D2033N. Briefly: Antiproliferation assay. Format: cell-based. To be noted: Mus musculus, BaF3; Ba/F3 cells, cell growth inhibition.
Source text: as §4, §5, §2, §6

A further test has as its system Ba/F3 ROS1 L2026M. Briefly: Antiproliferation assay. Type of test: cell-based. The conditions noted are these: Mus musculus, BaF3; Ba/F3 cells, cell growth inhibition.
Source text: as §4, §5, §2, §6

Details of test [3]: method as in PMID 30980071. The conditions noted are these: patients; cited from earlier work.
Test [4] relates to Ba/F3 CD74-ROS1 WT xenograft tumors. Briefly: Mouse efficacy study, Ba/F3 CD74-ROS1 xenograft. Type of test: in vivo. The conditions noted are these: NOD/SCID mice, 30 mg/kg PO qd. The method, then: (§7) All the procedures related to animal handling, care, and treatment in this study were performed according to guidelines approved by the Institutional Animal Care and Use Committee (IACUC) of Xavier University of Louisiana following the guidance of the AAALAC. Ba/F3-ROS1 and Ba/F3-ROS1-G2032R cells were maintained in RPMI 1640 medium supplemented with 10% fetal bovine serum. The cells growing in an exponential growth phase were harvested and counted for tumor inoculation. Female NOD/SCID mice 6–8 weeks of age were allowed to adapt to laboratory conditions for 10 days prior to dosing and were allowed food and water ad libitum. Each mouse was inoculated subcutaneously in the right flank with Ba/F3 CD74-ROS1 or Ba/F3 SL34A2-ROS1 G2032R cells (1 × 10^6) in 0.2 mL of PBS mixed with Matrigel (50:50) for tumor development.

Test [5] relates to Ba/F3 SLC34A2-ROS1 G2032R xenograft tumors. Briefly: Mouse efficacy study, Ba/F3 SLC34A2-ROS1 G2032R xenograft. Type of test: in vivo. To be noted: NOD/SCID mice, 30 mg/kg PO qd. On the procedure: as §7
Test [6] has as its system Ba/F3 ROS1 (SLC34A2) F2075C-G1837E. As to the kind of experiment: Antiproliferation assay. Format: cell-based. To be noted: Mus musculus, BaF3; Ba/F3 cell line. The method, then: as §1, §2
Test [7] deals with Ba/F3 ROS1 (SLC34A2) G2032R-D2113G. As to the kind of experiment: Antiproliferation assay. Format: cell-based. The conditions noted are these: Mus musculus, BaF3; Ba/F3 cell line. On the procedure: as §1, §2
Test [8] relates to Ba/F3 ROS1 (SLC34A2) G2032R-F2075C. Briefly: Antiproliferation assay. To be noted: Mus musculus, BaF3; Ba/F3 cell line. Format: cell-based. On the procedure: as §1, §2
For the next test, the system named is Ba/F3 ROS1 (CD74) L2086F. Briefly: Antiproliferation assay. Format: cell-based. To be noted: Mus musculus, BaF3; Ba/F3 cell line. The method, then: as §1, §2, §3
Test [9] relates to Ba/F3 ROS1 (CD74) S1986F-G2032R-L2086F. Briefly: Antiproliferation assay. Format: cell-based. The conditions noted are these: Mus musculus, BaF3; Ba/F3 cell line. On the procedure: as §1, §2, §3
In a further test the test system is Ba/F3 ROS1 (CD74) G2032R. Briefly: Antiproliferation assay. To be noted: Mus musculus, BaF3; Ba/F3 cell line. Type of test: cell-based. The method, then:
as §1, §2, §3

Test [10] relates to Ba/F3 ROS1 (CD74) G2032R-L2086F. Briefly: Antiproliferation assay. Type of test: cell-based. To be noted: Mus musculus, BaF3; Ba/F3 cell line. On the procedure:
as §1, §2, §3

Test [11] concerns Ba/F3 ROS1 (CD74) S1986F-L2086F. Briefly: Antiproliferation assay. Format: cell-based. The conditions noted are these: Mus musculus, BaF3; Ba/F3 cell line. On the procedure:
as §1, §2, §3

The subject of test [12] is Ba/F3 ROS1 (CD74) S1986F-G2032R. Briefly: Antiproliferation assay. Type of test: cell-based. To be noted: Mus musculus, BaF3; Ba/F3 cell line. The method, then: as §1, §2, §3
In test [13] the test system is Ba/F3 ROS1 (SLC34A2) L2026M. Briefly: Antiproliferation assay. Type of test: cell-based. To be noted: Mus musculus, BaF3; Ba/F3 cell line. The method, then:
as §5, §2

Test [14] relates to Ba/F3 ROS1 (SLC34A2) G2032R-F2075 V. Briefly: Antiproliferation assay. Format: cell-based. The conditions noted are these: Mus musculus, BaF3; Ba/F3 cell line. The method, then:
as §5, §2

Test [15] relates to Ba/F3 ROS1 (SLC34A2) G2032R. Briefly: Antiproliferation assay. Type of test: cell-based. To be noted: Mus musculus, BaF3; Ba/F3 cell line. The method, then:
as §5, §2

Test [16] concerns Ba/F3 ROS1 (SLC34A2) D2033N. As to the kind of experiment: Antiproliferation assay. Format: cell-based. The conditions noted are these: Mus musculus, BaF3; Ba/F3 cell line. On the procedure:
as §5, §2

Test [17] concerns Ba/F3 ROS1 (SLC34A2) V2098I. Briefly: Antiproliferation assay. Type of test: cell-based. The conditions noted are these: Mus musculus, BaF3; Ba/F3 cell line. On the procedure: as §5, §2

Take `Cc1cc(Nc2ncc(Cl)c(Nc3ccccc3S(=O)(=O)C(C)C)n2)c(OC(C)C)cc1C1CCNCC1` [ceritinib]: the half-maximal inhibitory concentration (IC50) in test [1] was 14.5 ± 2.2 nM; in [2], 180 nM; in the test with Ba/F3 ROS1 L2086F, 215 ± 33 nM; in the test with Ba/F3 ROS1-G2032R, 821 ± 148 nM; in the test on Ba/F3 ROS1 G2032R-F2075V it was above 2000 nM; in the test with Ba/F3 ROS1 D2033N, 135 ± 27 nM. This compound also gave an IC50 with Ba/F3 ROS1 L2026M of 43 ± 5 nM.
Regarding `C[C@@H](Oc1cc(-c2cnn(C3CCNCC3)c2)cnc1N)c1c(Cl)ccc(F)c1Cl` [crizotinib], the objective response rate in test [3] is on record as 72%. The progression-free survival in [3] is 19.2 months. For the same compound, the IC50 with Ba/F3 ROS1 L2086F is 745 ± 88 nM; in the test with Ba/F3 ROS1-G2032R, above 2000 nM; in the test with Ba/F3 ROS1 G2032R-F2075V, above 2000 nM; in the test on Ba/F3 ROS1 D2033N, 187 ± 39 nM. For the same compound, the “TGI (tumor growth inhibition)” value in test [4] worked out at 35%; in [5], 7%.
In the case of `C[C@H]1Oc2cc(cnc2N)-c2c(nn(C)c2C#N)CN(C)C(=O)c2ccc(F)cc21` [lorlatinib], the concentration for half-maximal inhibition (IC50) in test [6] was 0.1 ± 0.1 nM; in test [7] it was 142 ± 25.1 nM; in [8] it was above 2000 nM; in the test on Ba/F3 ROS1 L2086F, above 2000 nM; with Ba/F3 ROS1 (CD74) L2086F it was above 2000 nM; in test [9] it was above 2000 nM. The IC50 in the test with Ba/F3 ROS1 (CD74) G2032R was 385 ± 76 nM; in test [10], above 2000 nM; in test [11] it was above 2000 nM; in [12], 503 ± 77.4 nM; in the test with Ba/F3 ROS1-G2032R, 338 ± 55 nM; with Ba/F3 ROS1 G2032R-F2075V, 233 ± 31 nM. Moreover, the half-maximal inhibitory concentration (IC50) amounted to 7.6 ± 1.3 nM with Ba/F3 ROS1 D2033N; 1 ± 0.4 nM with Ba/F3 ROS1 L2026M; 1.1 ± 0.2 nM in test [13]; 341 ± 75.5 nM in test [14]; 244 ± 35.3 nM in [15]; 7.6 ± 0.5 nM in [16]. Also, in test [17], the IC50 worked out at 1.5 ± 0.4 nM.
